Experimental data taken from patent US11492361B2, “Compounds useful in HIV therapy” (GlaxoSmithKline Intellectual Property Development Limited, priority 2018, dated 2022).
Where two headings read alike, the source gives them in different places.

Legend:
NFKB2 = experiment: NFkB2 gene induction; format: cell-based, human; conditions: normal donor CD4 T cells, 24h, read-out: NFkB2 gene induction EC50
Experimental: 5×10^5 normal donor CD4 T cells were treated for 24h with serial dilutions of compounds starting at 1.0 μM at 6 fold, 7 places. Total RNA was isolated using the RNEasy Mini kit (Qiagen) per the manufacturer's instructions. The following TaqMan primer probe sets were sourced from Applied Biosystems: Hs00174517_m1 (NFKB2) and Hs02800695 (HPRT1). TaqMan-based real-time PCR (Fast Virus 1-Step Master Mix, Applied Biosystems) was used to amplify host genes of interest. Gene expression was normalized to HPRT1 and comparative threshold cycle (CT) method (ΔΔCT) was used for relative fold change of gene expression as compared to untreated cells. The data was analyzed by QuantStudio3 Real-Time PCR System.

[1] = biological target: Jurkat HIV-luciferase clones; experiment: Jurkat latency reversal assay; format: cell-based; conditions: Table 4 summary, read-out: Jurkat EC50
Procedure, shortened: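 Three pooled Jurkat HIV-luciferase clones (C16, I15, N6; 5,000 cells/well, maintained with 500 nM EFV) exposed to 3-fold, 14-point titrations (10 μM to 2.1 pM, 0.5% DMSO) in duplicate for 48 h at 37 °C. Luciferase luminescence read; EC50 and maximal % activation versus vehicle from four-parameter logistic fit.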

[2] = tested on: cell-associated HIV RNA (HIV gag RNA) in CD4+ T cells; experiment: Cell associated HIV RNA (caRNA) assay; format: cell-based, human; conditions: CD4+ T cells treated for 48 hours
From the text: During the productive phase of the viral life cycle, HIV produces a large number of differentially spliced transcripts collectively termed cell-associated HIV RNA (ca-HIV RNA) within some cells that are infected. In HIV-infected individuals on suppressive antiretroviral therapy (ART), changes in the levels of caHIV RNA is an accepted surrogate measure of the efficacy of HIV latency reversal.
To measure ca-HIVRNA, peripheral blood mononuclear cells (PBMCs) are isolated from leukocytes obtained by continuous-flow leukapheresis. Total CD4^+ T cells were isolated from PBMCs by negative selection using the EasySep Human CD4^+ T cell Enrichment kit (StemCell, Vancouver, Canada) per the manufacturer's recommendations. Resting CD4^+ T cells are isolated by negative selection with an immunomagnetic column as described previously (25) and either cryopreserved immediately or maintained for two days in IMDM medium (Gibco), 10% FBS, 2 μg/mL IL-2 (Peprotech), and antiretrovirals to prevent viral expansion.
For SMACm treatment, three to five replicates of 2-5×10^6 CD4^+ T cells were treated for 48 hours at 37° C. in 1 mL of RPMI medium 1640, 10% FBS, 10 μg/mL of enfuvirtide (Sigma), and 200 nM rilpivirine. 10 nM phorbol 12-myristate 13-acetate (PMA; Sigma) with 1 μM ionomycin (Sigma) was used as a positive control for LRA activation and 0.2% DMSO vehicle was used as a negative control. Following treatment, cells were lysed and RNA and DNA were co-extracted using an AIIPrep 96 RNA/DNA kit (Qiagen, Valencia, Calif.) per the manufacturer's instructions, adjusting the volume of lysis buffer to 0.6 mL, adding an on-column DNase I treatment (Qiagen) and eluting RNA in 50 μL of water. […]
HIV absolute HIV gag RNA copies per reaction were determined using an HIV gag gBlock qPCR standard corresponding to the DNA sequence of the qPCR product (5′-[…]-3′ (SEQ ID NO: 4); Integrated DNA Technologies), and copies were normalized to cell counts as determined by bright field microscopy. […]

With `CN[C@H](C)C(=O)N[C@@H]1CCS[C@@H]2CC(C)(C)C(C(=O)N[C@@H]3CCCc4ccccc43)N2C1=O` (stereo partly drawn) [SBI-0637142] the EC50 (NFKB2) was 18000 nM, the EC50 [1] was 1 nM and the “caRNA Lowest efficacious concentration observed” value [2] was over 1000.

In the case of `CN[C@H](C)C(=O)N[C@@H](C(=O)N1CCC[C@@H]1C(=O)N[C@@H]1c2ccccc2C[C@@H]1OCC#CC#CCO[C@@H]1Cc2ccccc2[C@H]1NC(=O)[C@H]1CCCN1C(=O)[C@H](NC(=O)[C@@H](C)NC)C1CCCCC1)C1CCCCC1` [AZD5582, reference compound], the EC50 (NFKB2) is reported as 28 nM, the EC50 [1] is reported as 8 nM and the “caRNA Lowest efficacious concentration observed” value [2] is reported as 10.

With `CC[C@H](NC(=O)[C@H](C)NC)C(=O)N1C[C@@H](O)C[C@H]1Cc1c(-c2[nH]c3cc(F)ccc3c2C[C@@H]2C[C@H](O)CN2C(=O)[C@H](CC)NC(=O)[C@H](C)NC)[nH]c2cc(F)ccc12` [Birinapant, reference compound] the EC50 (NFKB2; Homo sapiens) was over 1000 nM, the EC50 ([1]; Homo sapiens, Jurkat, 48 h) was 200 nM and the “caRNA Lowest efficacious concentration observed” value [2] was over 1000.
